Test results published in patent US8898047B2, “Methods for identifying inhibitors against viruses that use a class I fusion protein” (Janssen Pharmaceuticals NV, priority 2008, dated 2014).

Columns and labels:
[1] = biological target: IQN57 (HR1 hydrophobic pocket) (Human respiratory syncytial virus A, UniProt P03420); settings: 30 μM compound, 20° C., HR1 alone
Experimental: 20 μM biotinylated-IQN57 was immobilized on a Streptavidin-certified sensor chip (GE Healthcare, Diegem, Belgium) surface in PBS at a flow rate of 10 μl/min and a contact time of 7 min. A reference flow cell was used as a control for nonspecific binding and refractive index changes. […] Several PBS+5% dimethylsulfoxide (DMSO; Sigma Aldrich NV, Bornem, Belgium) buffer blanks were injected over the course of an experiment for double referencing. The flow system was washed between sample injections with running buffer containing 50% DMSO, and the immobilized surface was regenerated with one injection of 0.2% sodiumdodecylsulfate for 30 sec. SPR biosensor data were collected on a BIAcore S51. All experiments were conducted at 20° C.

[2] = biological target: biotin-labeled IQN57 / FITC-labeled C45 (HR1-CTC and HR2) (Human respiratory syncytial virus A, UniProt P03420); settings: 6HB-formation ELISA, FIG. 3E
Chain of biotin-labeled IQN57 / FITC-labeled C45 (HR1-CTC and HR2) (P03420 476-520): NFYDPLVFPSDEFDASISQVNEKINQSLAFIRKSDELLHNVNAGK
Chain of biotin-labeled IQN57 / FITC-labeled C45 (HR1-CTC and HR2) (P03420 153-209): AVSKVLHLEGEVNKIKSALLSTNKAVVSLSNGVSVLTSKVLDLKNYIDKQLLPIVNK
Experimental: White streptavidin-coated 96-well plates (NoAb Biodiscoveries, Mississauga, Canada) were blocked with PBS+5% BSA for 1 h and then washed three times with PBS. 10 nM biotin-labeled IQN57 dissolved in PBS+1% BSA was non-covalently bound to the surfaces of the 96-well plate for 30 min and then wells were washed again 3 times with PBS. […] Subsequently, POD-conjugated anti-FITC Fab fragment (1:5000) (Roche Applied Science, Vilvoorde, Belgium) in PBS+1% BSA was administered to the wells and incubated for 30 min. Finally, wells were washed again three times with PBS, Supersignal West Femto chemiluminescent substrate from Pierce (Perbio Science, Erembodegem, Belgium) added and signals were analyzed on a ViewLux UltraHTS microplate reader (Perkin Elmer, Zaventem, Belgium). Assay conditions without addition of biotin-labeled IQN57, FITC-labeled C45, POD-conjugated anti-FITC Fab fragment, or chemiluminescent substrate were included as negative controls or control of background signal in each of the experiments. In addition, assay conditions with saquinavir, Fuzeon® (T20), or the HIV-1-derived HR1 peptide (biotin-labeled IQN36) were used as specificity controls in each experiment.

HR1-derived peptide = settings: prior art (Cianci et al.); cited from earlier work
[3] = biological target: T1, HR1 (IQN57) and HR2 (C45) heptad-repeat peptides (Human respiratory syncytial virus A, UniProt P03420); type: binding, hRSV; settings: competition assay, FIG. 3C
T1 construct: IQ trimerisation segment (GCN4-pIQI-type coiled coil)
T1 sequence (P03420 153-209): as above
T1 sequence (P03420 476-520): as the sequence (P03420 476-520) above

RSV = RSV antiviral cellular assay; type: cell-based, hRSV; settings: for EC50: human respiratory syncytial virus, pEC50 = -log10 EC50 (M), RSV antiviral cellular assay, read-out: In vitro activity (pEC50) (converted); for log reduction in activity on structural modification: reduction of antiviral activity versus parent compound of the Compound Z series

Chain of IQN57 (HR1 hydrophobic pocket) (P03420 153-209): as the sequence (P03420 153-209) above

EC50 (RSV) [M] | Structure (SMILES) | log reduction in activity on structural modification (RSV) [log] | further results
 | O=c1n(Cc2nc3ccccc3n2CCCCO)c2cnccc2n1C1CC1 [BMS433771, reference compound] |  | Binding to HR1 (IQN57) by SPR [1]: do not bind to the HR1 hydrophobic pocket alone; Effect on interaction of HR2 (C45) with HR1-CTC (IQN57) [2]: facilitate the interaction of HR2 with the HR1-CTC; Binding to an HR1-derived peptide alone (HR1-derived peptide): relatively weak
 | Cc1ccc(CCCO)c(NCc2ccc3nc(NCCCN4CCOCC4)n(Cc4nc(C)ccc4O)c3c2)c1 [Compound 1, 2-[6-{[2-(3-hydroxy-propyl)-5-methyl-phenylamino]-methyl}-2-(3-morpholin-4-yl-propylamino)-benzoimidazol-1-ylmethyl]-6-methyl-pyridin-3-ol] |  | Competition with compound X for binding [3]: competed for the same binding pocket; Binding to HR1 (IQN57) by SPR [1]: do not bind to the HR1 hydrophobic pocket alone; Effect on interaction of HR2 (C45) with HR1-CTC (IQN57) [2]: facilitate the interaction of HR2 with the HR1-CTC
2.51e-09 | Cc1cccc(NCc2ccc3nc(NCCCN4CCOCC4)n(Cc4nc(C)ccc4O)c3c2)c1 [Compound 2] | 1.3 | 
1.58e-07 | Cc1ccc(O)c(Cn2c(NCCCN3CCOCC3)nc3ccccc32)n1 [Compound 3] |  | further log decrease in potency (RSV; further truncation of the methylamino-toluene moiety, relative to compound 2): 0.8 log
3.16e-11 | Cc1ccc(CCCO)c(NCc2ccc3nc(N)n(Cc4nc(C)ccc4O)c3c2)c1 [Compound 4] |  | log improvement in activity (RSV; removal of the morpholinopropyl group): 0.6 log
1.26e-08 | Cc1ccc(CCCO)c(NCc2ccc3ncn(Cc4nc(C)ccc4O)c3c2)c1 [Compound 5] | 2.6 | 
2.51e-09 | COc1ccc(C)nc1Cn1c(NCCCN2CCOCC2)nc2ccc(CNc3cc(C)ccc3CCCO)cc21 [Compound 6] | 1.3 | 
